# Data reported in ChEMBL document CHEMBL3046423, “SQ109 analogues as potential antimicrobial candidates” (2011).
# What was measured:
# Format in all cases: functional
# Candida parapsilosis [1] = test: Antifungal activity against Candida parapsilosis ATCC 22019 after 24 hr by broth microdilution method; conditions: Lodderomyces parapsilosis, ATCC 22019, 24 h
# Scopulariopsis = test: Antifungal activity against Scopulariopsis spp. after 24 hr by broth microdilution method
# Bacillus subtilis = test: Antibacterial activity against Bacillus subtilis ATCC 6051 after 16 to 18 hr by broth microdilution method
# Aspergillus flavus [2] = test: Antifungal activity against Aspergillus flavus after 24 hr by broth microdilution method
# [3] = tested on: Elizabethkingia meningoseptica; test: Antibacterial activity against Elizabethkingia meningoseptica ATCC 13253 after 16 to 18 hr by broth microdilution method
# Aspergillus fumigatus = test: Antifungal activity against Aspergillus fumigatus after 24 hr by broth microdilution method
# Rhizomucor = test: Antifungal activity against Rhizomucor spp. after 24 hr by broth microdilution method
# Penicillium sp. = test: Antifungal activity against Penicillium sp. after 24 hr by broth microdilution method
# Prescottella equi = test: Antibacterial activity against Rhodococcus equi ATCC 6939 after 16 to 18 hr by broth microdilution method; conditions: Rhodococcus (subgen. Prescottella) equi
# Klebsiella pneumoniae = test: Antibacterial activity against Klebsiella pneumoniae ATCC 700603 after 16 to 18 hr by broth microdilution method
# Trichosporon asahii = test: Antifungal activity against Trichosporon asahii after 24 hr by broth microdilution method
# Candida parapsilosis [4] = test: Antifungal activity against fluconazole-resistant Candida parapsilosis after 24 hr by broth microdilution method; conditions: Lodderomyces parapsilosis
# Escherichia coli = test: Antibacterial activity against Escherichia coli ATCC 35218 after 16 to 18 hr by broth microdilution method
# Aspergillus flavus [5] = test: Antifungal activity against Aspergillus flavus MRC 2527 after 24 hr by broth microdilution method; conditions: MRC 2527, 24 h
# Sporothrix schenckii = test: Antifungal activity against Sporothrix schenckii after 24 hr by broth microdilution method
# Staphylococcus aureus = test: Antibacterial activity against Staphylococcus aureus ATCC 43300 after 16 to 18 hr by broth microdilution method
# Candida tropicalis = test: Antifungal activity against Candida tropicalis after 24 hr by broth microdilution method
# Pichia kudriavzevii [6] = test: Antifungal activity against Pichia kudriavzevii after 24 hr by broth microdilution method
# Staphylococcus xylosus = test: Antibacterial activity against Staphylococcus xylosus ATCC 35033 after 16 to 18 hr by broth microdilution method
# Fusarium sp. = test: Antifungal activity against Fusarium sp. after 24 hr by broth microdilution method
# Cyberlindnera jadinii = test: Antifungal activity against Cyberlindnera jadinii after 24 hr by broth microdilution method; conditions: Williopsis jadinii
# Pichia kudriavzevii [7] = test: Antifungal activity against fluconazole-resistant Pichia kudriavzevii after 24 hr by broth microdilution method
# Candida albicans [8] = test: Antifungal activity against Candida albicans ATCC 90028 after 24 hr by broth microdilution method; conditions: ATCC 90028, 24 h
# Klebsiella oxytoca = test: Antibacterial activity against Klebsiella oxytoca ATCC 13182 after 16 to 18 hr by broth microdilution method
# Candida albicans [9] = test: Antifungal activity against fluconazole-resistant Candida albicans
# Candida albicans [10] = test: Antifungal activity against fluconazole-susceptible Candida albicans
Structure (SMILES),MIC (Candida parapsilosis [1]),MIC (Scopulariopsis),MIC (Bacillus subtilis),MIC (Aspergillus flavus [2]),MIC [3],MIC (Aspergillus fumigatus),MIC (Rhizomucor),MIC (Penicillium sp.),MIC (Prescottella equi),MIC (Klebsiella pneumoniae),MIC (Trichosporon asahii),MIC (Candida parapsilosis [4]),MIC (Escherichia coli),MIC (Sporothrix schenckii),MIC (Staphylococcus aureus),MIC (Staphylococcus xylosus),MIC (Fusarium sp.),MIC (Cyberlindnera jadinii),MIC (Candida albicans [8]),MIC (Klebsiella oxytoca),also measured
CC(C)CCCC(C)CCNCCNC1C2CC3CC(C2)CC1C3.Cl (stereo not drawn),7.8 µg/mL,1.95 µg/mL,15.6 µg/mL,31.2 µg/mL,31.2 µg/mL,7.8 µg/mL,7.8 µg/mL,3.9 µg/mL,7.8 µg/mL,125 µg/mL,7.8 µg/mL,7.8 µg/mL,31.2 µg/mL,0.49 µg/mL,31.2 µg/mL,15.6 µg/mL,7.8 µg/mL,1.95 µg/mL,3.9 µg/mL,62.5 µg/mL,MIC (Aspergillus flavus [5]): 25 µg/mL; MIC (Candida tropicalis): 7.8 µg/mL; MIC (Pichia kudriavzevii [6]): 7.8 µg/mL; MIC (Pichia kudriavzevii [7]): 0.98 µg/mL
CC(C)CCCC(C)CCNCCNC12CC3CC(CC(C3)C1)C2.Cl (stereo not drawn),15.6 µg/mL,1.95 µg/mL,15.6 µg/mL,31.2 µg/mL,31.2 µg/mL,15.6 µg/mL,7.8 µg/mL,7.8 µg/mL,15.6 µg/mL,62.5 µg/mL,7.8 µg/mL,7.8 µg/mL,31.2 µg/mL,0.49 µg/mL,62.5 µg/mL,15.6 µg/mL,7.8 µg/mL,1.95 µg/mL,3.9 µg/mL,62.5 µg/mL,MIC (Aspergillus flavus [5]): 25 µg/mL; MIC (Candida tropicalis): 3.9 µg/mL; MIC (Pichia kudriavzevii [6]): 15.6 µg/mL; MIC (Pichia kudriavzevii [7]): 0.98 µg/mL
CC(C)=CCC/C(C)=C/CNCCNC1C2CC3CC(C2)CC1C3.Cl (stereo not drawn),250 µg/mL,62.5 µg/mL,500 µg/mL,500 µg/mL,500 µg/mL,250 µg/mL,125 µg/mL,125 µg/mL,125 µg/mL,1000 µg/mL,125 µg/mL,250 µg/mL,500 µg/mL,1.95 µg/mL,1000 µg/mL,500 µg/mL,125 µg/mL,15.6 µg/mL,125 µg/mL,500 µg/mL,MIC (Candida albicans [9]): 4 µg/mL; MIC (Aspergillus flavus [5]): > 100 µg/mL; MIC (Candida tropicalis): 32.5 µg/mL; MIC (Pichia kudriavzevii [6]): 250 µg/mL; MIC (Pichia kudriavzevii [7]): 15.6 µg/mL; MIC (Candida albicans [10]): 4 µg/mL
CC(C)=CCC/C(C)=C/CNCCNC12CC3CC(CC(C3)C1)C2.Cl,250 µg/mL,125 µg/mL,125 µg/mL,> 500 µg/mL,500 µg/mL,125 µg/mL,125 µg/mL,62.5 µg/mL,125 µg/mL,1000 µg/mL,125 µg/mL,125 µg/mL,500 µg/mL,3.9 µg/mL,500 µg/mL,250 µg/mL,250 µg/mL,31.2 µg/mL,31.2 µg/mL,500 µg/mL,MIC (Aspergillus flavus [5]): > 100 µg/mL; MIC (Candida tropicalis): 62.5 µg/mL; MIC (Pichia kudriavzevii [6]): 125 µg/mL; MIC (Pichia kudriavzevii [7]): 15.6 µg/mL
CC(C)=CCC/C(C)=C/CC/C(C)=C/CNCCNC1C2CC3CC(C2)CC1C3.Cl (stereo not drawn),7.8 µg/mL,3.9 µg/mL,7.8 µg/mL,15.6 µg/mL,15.6 µg/mL,7.8 µg/mL,7.8 µg/mL,3.9 µg/mL,7.8 µg/mL,125 µg/mL,3.9 µg/mL,3.9 µg/mL,7.8 µg/mL,0.98 µg/mL,15.6 µg/mL,7.8 µg/mL,7.8 µg/mL,1.95 µg/mL,7.8 µg/mL,15.6 µg/mL,MIC (Aspergillus flavus [5]): 25 µg/mL; MIC (Candida tropicalis): 3.9 µg/mL; MIC (Pichia kudriavzevii [6]): 3.9 µg/mL; MIC (Pichia kudriavzevii [7]): 1.95 µg/mL
CC(C)CCCC(C)CCCC(C)CCNCCNC1C2CC3CC(C2)CC1C3.Cl (stereo not drawn),6.25 µg/mL,3.13 µg/mL,3.9 µg/mL,25 µg/mL,7.8 µg/mL,12.5 µg/mL,12.5 µg/mL,6.25 µg/mL,3.9 µg/mL,250 µg/mL,6.25 µg/mL,6.25 µg/mL,7.8 µg/mL,1.56 µg/mL,7.8 µg/mL,3.9 µg/mL,12.5 µg/mL,3.13 µg/mL,6.25 µg/mL,31.2 µg/mL,MIC (Aspergillus flavus [5]): > 100 µg/mL; MIC (Candida tropicalis): 6.25 µg/mL; MIC (Pichia kudriavzevii [6]): 6.25 µg/mL; MIC (Pichia kudriavzevii [7]): 3.13 µg/mL
NC[C@@H]1O[C@H](O[C@H]2[C@@H](O)[C@H](O[C@@H]3[C@@H](O)[C@H](N)C[C@H](N)[C@H]3O[C@H]3O[C@H](CN)[C@@H](O)[C@H](O)[C@H]3N)O[C@@H]2CO)[C@H](N)[C@@H](O)[C@@H]1O [FRAMYCETIN],–,–,0.78 µg/mL,–,12.5 µg/mL,–,–,–,1.56 µg/mL,6.25 µg/mL,–,–,3.13 µg/mL,–,25 µg/mL,0.2 µg/mL,–,–,–,6.25 µg/mL,–
C[C@@H]1[C@H](O)[C@@H](C)/C=C/C=C/C=C/C=C/C=C/C=C/C=C/[C@H](O[C@@H]2O[C@H](C)[C@@H](O)[C@H](N)[C@@H]2O)C[C@@H]2O[C@](O)(C[C@@H](O)C[C@@H](O)[C@H](O)CC[C@@H](O)C[C@@H](O)CC(=O)O[C@H]1C)C[C@H](O)[C@H]2C(=O)O [AMPHOTERICIN B],0.04 µg/mL,10 µg/mL,–,–,–,–,0.31 µg/mL,–,–,–,0.31 µg/mL,0.02 µg/mL,–,5 µg/mL,–,–,2.5 µg/mL,0.31 µg/mL,0.62 µg/mL,–,–
